Results reported in US20240285571A1, “METHODS OF TREATING BONE INFECTIONS” (MICROBION CORPORATION, priority 2020, published 2024).
In brackets after ≈: the same amount, converted by molar mass.

Experiments:
[1] = system: relevant ATCC QC organisms; test: Broth microdilution MIC, QC (Example 6); type: cell-based
Procedure: (§1) Test Compounds: The test agents BisEDT (MB-1-B3; Lot No. ED268-1-11-01), MB-2B, and MB-6 were stored at room temperature, in the dark, until assayed. The solvent and diluent for the test agents was DMSO (Sigma; St. Louis, MO; Lot No. SHBB9319V) and the prepared stock concentration was 6,464 μg/mL (101× the final test concentration).
(§2) Test compounds were evaluated at a concentration range of 0.06-64 μg/mL. For Gram-negative test isolates, amikacin and ceftazidime (alone and with clavulanate at a fixed concentration of 4 μg/mL) were evaluated over a concentration range of 0.06-64 μg/mL; meropenem and levofloxacin were evaluated over a concentration range of 0.008-8 μg/mL. For the testing of S. aureus, clindamycin, daptomycin, levofloxacin and vancomycin were evaluated at a concentration range of 0.008-8 μg/mL; linezolid was tested from 0.03-32 μg/mL.
Organisms: The test organisms as shown in Tables 11-15 consisted of clinical isolates from the Micromyx (MMX) repository and reference strains from the American Type Culture Collection (ATCC; Manassas, VA), National Collection of Type Cultures (NCTC; Public Health England, Salisbury, UK), the Network on Antimicrobial Resistance in Staphylococcus aureus (NARSA; BEI Resources, Manassas, VA), and the Centers for Disease Control and Prevention (CDC; Atlanta, GA). The test organisms were maintained frozen at −80° C. Prior to testing, the isolates were cultured on Tryptic Soy Agar with 5% sheep blood (BAP; Becton Dickson [BD]/BBL; Sparks, MD; Lot Nos. 9080650 and 9108563) at 35° C. Relevant ATCC quality control (QC) organisms (Table 16) were included during testing in accordance with CLSI guidelines (3). Further details on the genetic characterization of the isolates where available can be found in Table 17.
(§3) Media: Cation-adjusted Mueller Hinton broth (CAMHB; BD; Lot No. 8190586) was used as the medium for testing (2, 3). For testing daptomycin, calcium was supplemented with […] Ca^2+, resulting in a final concentration of […] Ca^2+ (2, 3).
(§4) MIC Assay Procedure: MIC values were determined using a broth microdilution procedure described by CLSI (2, 3). Automated liquid handlers (Multidrop 384, Labsystems, Helsinki, Finland; Biomek 2000 and Biomek F X, Beckman Coulter, Fullerton CA) were used to conduct serial dilutions and liquid transfers.
(§5) To prepare the drug mother plates, which would provide the serial drug dilutions for the replicate daughter plates, the wells of columns 2 through 12 of standard 96-well microdilution plates (Costar 3795) were filled with 150 μl of the appropriate diluent for each row of drug. The test articles and comparator compounds (300 μl at 101× the highest concentration to be tested) were dispensed into the appropriate wells in column 1. The Biomek 2000 was then used to make 2-fold serial dilutions in the mother plates from column 1 through column 11. The wells of column 12 contained no drug and served as the organism growth control wells for the assay.
(§6) The daughter plates were loaded with 190 μL per well of RPMI using the Multidrop 384. The test panels were prepared on the Biomek FX instrument which transferred 2 μL of drug solution from each well of a mother plate to the corresponding well of each daughter plate in a single step.
(§7) A standardized inoculum of each test organism was prepared per CLSI methods to equal a 0.5 McFarland standard, followed by a dilution of 1:20. The plates were then inoculated with 10 μL of the diluted inoculum using the Biomek 2000 from low to high drug concentration resulting in a final concentration of approximately 5×10^5 CFU/mL.
(§8) Plates were stacked 3-4 high, covered with a lid on the top plate, placed into plastic bags, and incubated at 35° C. for 16 to 20 hr (vancomycin was read for S. aureus after 24 hr incubation time). The MIC was recorded as the lowest concentration of drug that inhibited visible growth of the organism.

[2] = system: vancomycin-intermediate Staphylococcus aureus; test: Broth microdilution MIC (Example 6); type: cell-based
Procedure: as §1, §2, §3, §4, §5, §6, §7, §8

S. pneumoniae = test: Broth microdilution MIC (Example 5); type: cell-based
Procedure: (§9) Test and Comparator Agents: The test agents were stored at room temperature until assayed. […] The stock solutions were allowed to stand for at least 1 hr prior to use to auto-sterilize.
(§10) TestMedia: Test media were prepared and stored in accordance with guidelines from CLSI (4, 6, 7).
(§11) Broth Microdilution MC Testing (Aerobic Bacteria and Yeast): The broth microdilution assay method employed for the susceptibility testing of aerobic bacteria (excluding N. gonorrhoeae which was evaluated by agar dilution) and yeast essentially followed the procedures described by CLSI (3, 4, 7, 8) and employed automated liquid handlers to conduct serial dilutions and liquid transfers. […] These would become the ‘mother plates’ from which ‘daughter’ or test plates would be prepared. The drugs (300 μL at 40× the desired top concentration in the test plates) were dispensed into the appropriate well in Column 1 of the mother plates. The Biomek 2000 was used to make serial two-fold dilutions through Column 11 in the “mother plate”. The wells of Column 12 contained no drug and ultimately served as the organism growth control wells.
(§12) The daughter plates were prepared using the Biomek FX which transferred 5 μL of drug solution from each well of a mother plate to the corresponding well of the correct daughter plate in a single step.
(§13) A standardized inoculum of each organism was prepared per CLSI methods (3, 7). Isolated colonies of each test isolate were picked from the primary plate and a suspension was prepared to equal a 0.5 McFarland turbidity standard. Standardized suspensions were then diluted […] (1:100 for yeast, 1:20 for bacteria). After dilution, the inoculum suspensions were then transferred to compartments of sterile reservoirs divided by length (Beckman Coulter), and the Biomek 2000 was used to inoculate all plates. Daughter plates were placed on the Biomek 2000 in reverse orientation so that plates were inoculated from low to high drug concentration.
(§14) The Biomek 2000 delivered 10 μL of standardized inoculum into each well of the appropriate daughter plate for an additional 1:20 dilution.
(§15) Plates were stacked 4 high, covered with a lid on the top plate, placed into plastic bags, and incubated at 35° C. for approximately 24-48 hr for all yeast isolates and 16-24 hr for aerobic bacteria. Plates were viewed from the bottom using a plate viewer. […] MIC endpoints for the test agents and control compounds were read per CLSI criteria (3, 7).

S. aureus = test: Broth microdilution MIC (Example 5); type: cell-based, Staphylococcus aureus; details: Staphylococcus aureus, ATCC 29213 / MSSA, S. aureus MMX 101 (ATCC 29213); QC; MSSA; read-out: MIC
Procedure: as §9, §10, §11, §12, §13, §14, §15

Escherichia coli = test: Broth microdilution MIC (Example 6); type: cell-based
Procedure: (§16) Test Compounds: The test agents BisEDT (MB-1-B3; Lot No. ED268-1-11-01), MB-2B, and MB-6 were stored at room temperature, in the dark, until assayed.
(§17) For testing daptomycin, calcium was supplemented with […] Ca^2+, resulting in a final concentration of […] Ca^2+ (2, 3).
(§18) MIC Assay Procedure: MIC values were determined using a broth microdilution procedure described by CLSI (2, 3).
(§19) The Biomek 2000 was then used to make 2-fold serial dilutions in the mother plates from column 1 through column 11. The wells of column 12 contained no drug and served as the organism growth control wells for the assay.
(§20) The test panels were prepared on the Biomek FX instrument which transferred 2 μL of drug solution from each well of a mother plate to the corresponding well of each daughter plate in a single step.
as §7, §8

Klebsiella pneumoniae = test: Broth microdilution MIC (Example 6); type: cell-based
Procedure: as §16, §17, §18, §19, §20, §7, §8

Pseudomonas aeruginosa = test: Broth microdilution MIC (Example 6); type: cell-based
Procedure: as §16, §17, §18, §19, §20, §7, §8

Acinetobacter baumannii = test: Broth microdilution MIC (Example 6); type: cell-based
Procedure: as §1, §2, §3, §4, §5, §6, §7, §8

## CCCCCCCCCC(=O)N[C@@H](Cc1c[nH]c2ccccc12)C(=O)N[C@H](CC(N)=O)C(=O)N[C@@H](CC(=O)O)C(=O)N[C@@H]1C(=O)NCC(=O)N[C@@H](CCCN)C(=O)N[C@@H](CC(=O)O)C(=O)N[C@H](C)C(=O)N[C@@H](CC(=O)O)C(=O)NCC(=O)N[C@H](CO)C(=O)N[C@@H]([C@H](C)CC(=O)O)C(=O)N[C@@H](CC(=O)c2ccccc2N)C(=O)O[C@@H]1C [DAP]
[1]; S. aureus ATCC 29213
  MIC: 0.5 µg/mL
[2]; S. aureus isolate NRS 1 (hVISA)
  MIC: 1 µg/mL
[2]; S. aureus isolate NRS 2
  MIC: 0.25 µg/mL
[2]; S. aureus isolate NRS 3
  MIC: 1 µg/mL
[2]; S. aureus isolate NRS 4
  MIC: 0.5 µg/mL
[2]; S. aureus isolate NRS 13
  MIC: 2 µg/mL
[2]; S. aureus isolate NRS 18
  MIC: 0.5 µg/mL
[2]; S. aureus isolate NRS 22
  MIC: 2 µg/mL
[2]; S. aureus isolate NRS 24 (hVISA)
  MIC: 0.5 µg/mL
[2]; S. aureus isolate NRS 27
  MIC: 0.25 µg/mL

## COc1cc(Cc2cnc(N)nc2N)cc(OC)c1OC.Cc1cc(NS(=O)(=O)c2ccc(N)cc2)no1 [Trimeth/Sulfa]
S. pneumoniae; S. pneumoniae MMX 880, LevR SXTR CCR EryR PenR
  MIC: 4/76
S. pneumoniae; S. pneumoniae MMX 937, MemR SXTR CCR EryR PenR
  MIC: 16/304
S. pneumoniae; S. pneumoniae MMX 3959, CCR EryR
  MIC: 2/38
S. pneumoniae; S. pneumoniae MMX 5440, MemR SXTR CCR EryR PenR
  MIC: 16/304
S. pneumoniae; S. pneumoniae MMX 5445, MemR SXTR CCR EryR PenR
  MIC: 8/152
S. pneumoniae; S. pneumoniae MMX 8133, MemR SXTR CCR EryR PenR
  MIC: 8/152

## CC(C)(O/N=C(\C(=O)N[C@@H]1C(=O)N2C(C(=O)[O-])=C(C[n+]3ccccc3)CS[C@H]12)c1csc(N)n1)C(=O)O.O=C(O)[C@H]1/C(=C/CO)O[C@@H]2CC(=O)N21 [CAZ + CLAV]
[1]; K. pneumoniae ATCC BAA-1705
  MIC: >64/4
[1]; P. aeruginosa ATCC 27853
  MIC: 2/4

## Cc1onc(-c2ccccc2)c1C(=O)N[C@@H]1C(=O)N2[C@@H]1SC(C)(C)[C@@H]2C(=O)O [Oxacillin]
S. aureus
  MIC: 0.2 µg/mL (≈ 0.498 µM)

## CC(C)(O/N=C(\C(=O)N[C@@H]1C(=O)N2C(C(=O)[O-])=C(C[n+]3ccccc3)CS[C@H]12)c1csc(N)n1)C(=O)O.O=C(O)[C@H]1/C(=C/CO)O[C@@H]2CC(=O)N21 [CAZ/CLAV]
Escherichia coli; E. coli ATCC BAA-2471, NDM
  MIC: >64/4
Escherichia coli; E. coli CDC 114, ESBL/KPC
  MIC: 64/4
Escherichia coli; E. coli CDC 118, ESBL/NDM
  MIC: >64/4
Escherichia coli; E. coli CDC 435, NDM
  MIC: >64/4
Escherichia coli; E. coli CDC 451, KPC
  MIC: 16/4
Escherichia coli; E. coli CDC 503, ESBL/NDM
  MIC: >64/4
Escherichia coli; E. coli MMX 5745, KPC
  MIC: 16/4
Escherichia coli; E. coli MMX 5755, ESBL
  MIC: 1/4
Klebsiella pneumoniae; K. pneumoniae ATCC BAA-1705, ESBL/KPC
  MIC: >64/4
Klebsiella pneumoniae; K. pneumoniae CDC 112, KPC
  MIC: >64/4
Klebsiella pneumoniae; K. pneumoniae CDC 113, ESBL/KPC
  MIC: >64/4
Klebsiella pneumoniae; K. pneumoniae CDC 115, ESBL/KPC
  MIC: >64/4
Klebsiella pneumoniae; K. pneumoniae CDC 120, ESBL/KPC
  MIC: 64/4
Klebsiella pneumoniae; K. pneumoniae CDC 126, ESBL/KPC
  MIC: 8 µg/mL
Klebsiella pneumoniae; K. pneumoniae CDC 129, ESBL/KPC
  MIC: >64/4
Klebsiella pneumoniae; K. pneumoniae CDC 135, ESBL/VIM
  MIC: >64/4
Klebsiella pneumoniae; K. pneumoniae CDC 138, ESBL/NDM
  MIC: >64/4
Klebsiella pneumoniae; K. pneumoniae CDC 158, ESBL/NDM/OXA
  MIC: >64/4
Pseudomonas aeruginosa; P. aeruginosa isolate CDC 230, β-lactamase type VIM/OXA
  MIC: 32/4
Pseudomonas aeruginosa; P. aeruginosa isolate CDC 231, β-lactamase type KPC/OXA
  MIC: >64/4
Pseudomonas aeruginosa; P. aeruginosa isolate CDC 241, β-lactamase type IMP/OXA
  MIC: >64/4
Pseudomonas aeruginosa; P. aeruginosa isolate CDC 246, β-lactamase type NDM/OXA
  MIC: >64/4
Pseudomonas aeruginosa; P. aeruginosa isolate CDC 250, β-lactamase type NDM/OXA
  MIC: >64/4
Pseudomonas aeruginosa; P. aeruginosa isolate CDC 356, β-lactamase type KPC
  MIC: 64/4
Pseudomonas aeruginosa; P. aeruginosa isolate CDC 439, β-lactamase type IMP
  MIC: >64/4
Pseudomonas aeruginosa; P. aeruginosa isolate CDC 444, β-lactamase type VIM
  MIC: 32/4
Pseudomonas aeruginosa; P. aeruginosa isolate CDC 457, β-lactamase type VIM
  MIC: 64/4
Pseudomonas aeruginosa; P. aeruginosa isolate CDC 516, β-lactamase type KPC/AmpC
  MIC: 64/4
Pseudomonas aeruginosa; P. aeruginosa isolate CDC 518, β-lactamase type KPC/AmpC
  MIC: 32/4
Acinetobacter baumannii; A. baumannii isolate CDC 273, β-lactamase type ESBL/OXA
  MIC: 64/4
Acinetobacter baumannii; A. baumannii isolate CDC 274, β-lactamase type ESBL/OXA
  MIC: >64/4
Acinetobacter baumannii; A. baumannii isolate CDC 275, β-lactamase type ESBL/OXA
  MIC: >64/4
Acinetobacter baumannii; A. baumannii isolate CDC 277, β-lactamase type ESBL/OXA
  MIC: >64/4
Acinetobacter baumannii; A. baumannii isolate CDC 284, β-lactamase type ESBL/OXA
  MIC: 16/4
Acinetobacter baumannii; A. baumannii isolate CDC 307, β-lactamase type OXA
  MIC: 64/4
Acinetobacter baumannii; A. baumannii isolate CDC 308, β-lactamase type ESBL/OXA
  MIC: 64/4
Acinetobacter baumannii; A. baumannii isolate CDC 311, β-lactamase type OXA
  MIC: >64/4
Acinetobacter baumannii; A. baumannii isolate CDC 312, β-lactamase type OXA
  MIC: >64/4
Acinetobacter baumannii; A. baumannii isolate CDC 313, β-lactamase type ESBL/OXA
  MIC: >64/4
Acinetobacter baumannii; A. baumannii isolate NCTC 13304, β-lactamase type OXA
  MIC: >64/4
